Patent US7629382B2, “Use of tellurium containing compounds as nerve protecting agents” (BioMAS Ltd., priority 2003, dated 2009)
“And” between values parts separate entries of the source, which are not always exact repeats. Equal entries are not always repeated.

How the values were obtained:
[1] = rats; intravenous and intramuscular administration; cited from earlier work
recombinant p21 ras = recombinant p21 ras (Homo sapiens, UniProt P01112); test: Activation of recombinant p21ras by GDP/GTP exchange; format: biochemical; details: incubated 10 minutes
Method: AS101 (ammonium trichloro(dioxoethylene-O,O′)tellurate) was incubated with recombinant p21^ras for 10 minutes;
(§1) The effect of AS101 on signaling pathways that are controlled by Ras superfamily GTPases was screened by parallel analysis of the activation of the Ras family GTPases and their effectors (FIG. 1). The primary methods used for studying activation of different Ras superfamily GTPases were: (a) pull down of activated Ras superfamily GTPases from cell lysates, by binding of the specific recombinant purified effector GTPase binding domains to the activated GTP bound form. Subsequent to the pull down of the activated GTPases, the proteins were detected and quantified by western blotting; (b) activation of GTPases effectors such as Raf or RAC, by reporter gene assays; and (c) direct immunoprecipitation kinase assays (FIG. 2).
P21ras was cleaved by cyanogen bromide. This process yielded three fragments, each containing one cysteine residue: fragment 1 containing Cys51 (Mr 7,203); fragment 2 containing Cys60 (Mr 4,540) and fragment 3 containing Cys118 (Mr 6223). To confirm that Cys118 is the molecular target of AS101, a form of p21ras was generated identical to the wild type enzyme except that Cys118 is changed by a Ser residue (referred to as p21rasC118S). […] The stimulation by AS101 of nucleotide exchange on GDP-preloaded p21rasC118S in vitro was determined.

p21waf = p21waf protein expression in PC12 cells (Western blotting); format: cell-based; details: for effect of pretreatment on p21waf protein expression induced by AS101: PC12 cells pretreated before AS101
Method: PC12 cells were washed in serum-free medium, resuspended to 1-5×10^6cells/ml. After 24 hours of incubation at 37° C. in culture, the cells were supplemented with 3 ml of medium (RPMI 1640 containing 10% FCS, 2% glutamine and 1 mg/ml G418 (Life Technologies, Inc.). After another 24 hours, cells were resuspended and maintained in the selection medium. After 3-4 weeks in selective medium, transfected cells were analyzed for via Western blotting. Results are expressed as percent p21 as compared to the negative (no drug) control.
PC12 cell extracts (20 μg/lane of protein) boiled under reducing conditions, were subjected to electrophoresis on 7.5 and 12.5% polyacrylamide gels and electro-transferred to nitrocellulose membranes. The membrane was blocked for one hour with 10% powdered milk in 0.2% Tween 20, Tris-buffered saline, and then incubated with the appropriate specific detecting antibodies. Immunoreactive proteins were detected with horseradish peroxidase-conjugated secondary antibodies (Amersham, Arlington Heights, Ill.) and a chemiluminescence reagent. For immunoprecipitation studies, immune complexes were precipitated with Protein A-Sepharose (Pharmacia) and, following electrophoresis, were blotted with anti-phosphoserine or anti-phosphotyrosine antibodies.

c-raf-1 = test: Activation of p21ras downstream effector c-raf-1; format: cell-based; details: cells incubated with AS101 for 15 minutes
Excerpt: as §1

PC12 cells [2] = test: Detection of apoptosis in PC12 cells (NGF withdrawal); format: cell-based
Method: (§2) To assess the neuroprotective effects of AS101, PC12 cells were maintained in Dulbecco's modified Eagle's medium supplemented with 8% heat inactivated horse serum, 8% heat inactivated fetal bovine serum, glutamine (5 mM) and 50 μg/ml gentamycin at 37° C.
The percentage of cells undergoing apoptosis was quantitatively determined using an Apoptosis Detection kit, on the basis of their ability to bind annexin V and exclude iodide, and also by an in situ cell detection kit incorporating HTC labeling and TUNEL.

PC12 cells [3] = test: Neuronal differentiation of PC12 cells; format: cell-based
Method: as §2

spinal cord injury = test: Rat spinal cord injury model (weight-drop contusion); format: in vivo
Method: Twenty rats were divided into 4 treatment groups (control, AS101 15; 20; 30 μg). Experimental spinal cord injury (SCI) was induced via weight-drop contusion models that result in significant locomotor deficits, including lack of coordination and trunk stability. AS101 was applied topically to the damaged area and rats were treated for 21 days with AS101 administrated i.v. At the end of the first week following SCI, and on days 14 and 21, recovery was determined using Basso, Beattie and Bresnahan (BBB) locomotor scale score.

PC12 cells [4] = test: Cell cycle distribution of PC12 cells (propidium iodide flow cytometry); format: cell-based
Method: as §2
Cell cycle distribution studies were performed as previously described. Cells were trypsinyzed and suspended for 10 minutes at room temperature at 1.106/ml buffer containing lmg/ml RNAse, 1% NP-40, 10 μg/ml propidium iodide and 0.1% sodium citrate. Propidium iodide fluorescence was measured using a FACStar plus flow cytometer equipped with an air-cooled argon laser delivering 15 mW of light at […]. The red fluorescence from 1.104 cells from each sample was collected through a 610 nm bandpass filter.

[5] = test system: PC12 cells expressing a point mutation of Cys118 of P21ras; test: Neuronal differentiation of PC12 cells expressing Cys118 point mutation of p21ras; format: cell-based
Erk = test: Kinase assay of immunoprecipitated Erk with myelin basic protein as substrate; format: cell-based; details: Jurkat T cells or NIH3T3 cells
Method: NIH3T3 cells were incubated with AS101 for 10 minutes with or without famesyl transferase inhibitor.
Endogenous JNK and erk were immunoprecipitated from cell lysates with specific antibodies and their activities measured by using p^32 ATP and glutathione s-transferase (GST) e-jun or myelin basic protein (MPB) respectively, as the substrate. Samples were run on SDS-polyacrylamide gel electrophoresis gels and subjected to Phosphorlmager analysis.
as §1

[6] = test system: PC12 cells expressing the dominant negative form (N17) of ras; test: Neuronal differentiation of PC12 cells expressing dominant negative ras; format: cell-based
Method: as §2
The ras Asn-17 gene was then cloned into a mammalian expression vector. Transfection of PC12 cells with the plasmid DNA was performed with the calcium phosphate precipitation technique as described previously.

recombinant p21 ras, sequence (P01112 whole entry, species assumed): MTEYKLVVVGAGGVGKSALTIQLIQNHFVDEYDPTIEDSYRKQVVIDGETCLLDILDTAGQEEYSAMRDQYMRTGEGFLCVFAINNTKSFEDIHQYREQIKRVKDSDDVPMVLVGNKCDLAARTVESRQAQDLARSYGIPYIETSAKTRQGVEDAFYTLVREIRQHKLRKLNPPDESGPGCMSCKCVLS

## Cl[TeH]1(Cl)(Cl)OCCO1 [AS101, ammonium trichloro(dioxyethylene-O,O′)tellurate]
[1]
  LD50 relative to immunologically effective dose: 500-1000 folds
Recombinant p21 ras
  binding to and activation of p21 ras via GDP/GTP exchange: directly binds to recombinant p21 ras and activates it via GDP/GTP exchange
p21waf; PC12 cells, 24 h, dose-dependent
  p21waf protein expression: pronounced increase
c-raf-1
  activation of c-raf-1: could activate
PC12 cells [2]; AS101 0.1 μg/ml
  Apoptotic: 8.8%
PC12 cells [2]; AS101 0.5 μg/ml
  Apoptotic: 5.3%
PC12 cells [2]; AS101 1 μg/ml
  Apoptotic: 6.6%
PC12 cells [3]
  neuronal differentiation: induced neuronal differentiation in a dose-dependent manner
  optimal doses for inducing neuronal differentiation: 0.5 µg/mL and 1 µg/mL
Spinal cord injury
  reduction in body weight following injury: attenuated
Spinal cord injury; 20 μg AS101 group, two deaths in control group
  mortality: no mortality
Spinal cord injury; 30 μg AS101 group, two deaths in control group
  mortality: no mortality
Spinal cord injury; administration after spinal cord injury
  tolerability / adverse side effects: well tolerated
Spinal cord injury; high dose AS101, repeated administration, control 1±1.7
  BBB locomotor scale score (functional recovery): 3±2
Spinal cord injury; low dose group, two deaths in control group
  deaths: one
Spinal cord injury; second and third weeks
  therapeutic effect during second and third weeks of treatment: no beneficial effect
PC12 cells [4]; AS101 0.1 μg/ml
  G0/G1: 39.7%
  G2/M: 16.4%
  S: 43.9%
PC12 cells [4]; AS101 0.5 μg/ml
  G2/M: 27.9%
  S: 4.0%
PC12 cells [4]; AS101 0.5 μg/ml, 24 hours
  G0/G1: 68.1%
PC12 cells [4]; AS101 1 μg/ml
  G0/G1: 67.5%
  G2/M: 29%
  S: 3.5%
PC12 cells [4]; NGF + anti NGF Ab + AS101
  G0/G1: 68%
  G2/M: 27.6%
  S: 4.4%
[5]
  cellular differentiation: did not result in cellular differentiation
Erk
  activation of ras and downstream effector Erk: activated ras and its downstream effector, Erk
[6]
  differentiation: did not result in their differentiation

## COC(=O)[C@H](CCSC)NC(=O)c1ccc(NC[C@@H](N)CS)cc1-c1ccccc1 [farnesyl transferase inhibitor]
p21waf
  effect of pretreatment on p21waf protein expression induced by AS101: abolished

## COc1cccc(-c2cc(=O)c3ccccc3o2)c1N [PD98059]
p21waf
  effect of pretreatment on p21waf protein expression induced by AS101: abolished
